The source of these data is US6545049B1, “Dimer-selective RXR modulators and methods for their use” (Ligand Pharmaceuticals Incorporated, priority 1995, dated 2003).

Where two headings read alike, the source gives them in different places.

Series [1] has as its target T1, RXRα (Homo sapiens, UniProt P19793).
T1 sequence (P19793 1-462): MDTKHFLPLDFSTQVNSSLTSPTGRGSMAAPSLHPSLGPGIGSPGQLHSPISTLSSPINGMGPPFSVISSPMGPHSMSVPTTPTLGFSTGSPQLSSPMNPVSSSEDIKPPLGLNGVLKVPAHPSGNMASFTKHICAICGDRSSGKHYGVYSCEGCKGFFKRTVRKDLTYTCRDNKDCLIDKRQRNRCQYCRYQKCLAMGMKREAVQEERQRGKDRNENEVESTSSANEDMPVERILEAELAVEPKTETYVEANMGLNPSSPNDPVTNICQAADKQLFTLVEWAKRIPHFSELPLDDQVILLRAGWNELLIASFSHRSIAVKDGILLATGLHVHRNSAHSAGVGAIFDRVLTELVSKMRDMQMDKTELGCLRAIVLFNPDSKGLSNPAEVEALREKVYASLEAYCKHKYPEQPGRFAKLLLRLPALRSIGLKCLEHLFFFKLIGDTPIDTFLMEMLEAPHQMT
Description: RXR binding, RXRα. To be noted: -v- tritiated LGD1069 and tritiated 9-cis retinoic acid.

Series [2] concerns the target T2, RXRβ (Mus musculus, UniProt P28704).
T2 sequence (P28704 1-520): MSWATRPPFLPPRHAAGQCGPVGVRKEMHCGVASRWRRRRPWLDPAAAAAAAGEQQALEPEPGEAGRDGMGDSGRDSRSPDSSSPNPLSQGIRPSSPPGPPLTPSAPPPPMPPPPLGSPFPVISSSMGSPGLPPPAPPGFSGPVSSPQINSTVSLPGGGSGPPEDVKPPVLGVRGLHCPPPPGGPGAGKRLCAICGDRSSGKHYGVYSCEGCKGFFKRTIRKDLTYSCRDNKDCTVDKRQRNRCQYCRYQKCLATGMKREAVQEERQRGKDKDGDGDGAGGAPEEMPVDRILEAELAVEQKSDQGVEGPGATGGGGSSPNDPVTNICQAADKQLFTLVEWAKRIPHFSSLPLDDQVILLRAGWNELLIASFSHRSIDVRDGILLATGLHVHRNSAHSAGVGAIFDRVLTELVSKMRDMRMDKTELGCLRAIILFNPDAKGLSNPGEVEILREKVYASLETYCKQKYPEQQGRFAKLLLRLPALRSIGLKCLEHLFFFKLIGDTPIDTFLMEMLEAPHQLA
Description: RXR binding, RXRβ. The conditions noted are these: -v- tritiated LGD1069 and tritiated 9-cis retinoic acid.

In series [3] the target is T3, RXRγ (Mus musculus, UniProt P28705).
T3 sequence (P28705 1-463): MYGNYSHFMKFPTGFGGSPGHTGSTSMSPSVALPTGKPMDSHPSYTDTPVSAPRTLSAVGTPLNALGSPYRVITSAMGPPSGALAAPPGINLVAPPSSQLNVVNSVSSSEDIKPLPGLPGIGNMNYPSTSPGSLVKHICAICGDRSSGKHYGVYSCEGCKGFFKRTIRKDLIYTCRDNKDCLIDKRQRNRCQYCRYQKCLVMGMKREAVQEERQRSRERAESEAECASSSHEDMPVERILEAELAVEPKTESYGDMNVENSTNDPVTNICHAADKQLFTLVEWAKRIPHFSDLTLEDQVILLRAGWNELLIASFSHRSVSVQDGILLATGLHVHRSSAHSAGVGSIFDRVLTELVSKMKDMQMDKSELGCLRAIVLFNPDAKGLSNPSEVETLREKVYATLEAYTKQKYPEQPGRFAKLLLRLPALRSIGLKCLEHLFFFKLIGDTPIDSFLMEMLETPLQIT
Description: RXR binding, RXRγ. To be noted: -v- tritiated LGD1069 and tritiated 9-cis retinoic acid.

The target of a further series is T4, RXR:RXR homodimer (Homo sapiens, UniProt P19793).
T4 sequence (P19793 1-462): T1 sequence (P19793 1-462)
Description: RXR homodimer co-transfection assay (FIG. 1). To be noted: in the presence of known RXR activators (LGD1069, LG100268, 9-cis retinoic acid).

Series [4] addresses T1, RXRα. Description: RXR homodimer co-transfection assay, antagonist mode, RXRα. To be noted: read-out: RXRα Potency IC50; antagonist potency in the presence of the known RXR agonist LGD1069; CV-1 cells.
The target in series [5] is T2, RXRβ. Description: RXR homodimer co-transfection assay, antagonist mode, RXRβ. To be noted: read-out: RXRβ Potency IC50; antagonist potency in the presence of the known RXR agonist LGD1069; CV-1 cells.
Series [6] concerns the target T3, RXRγ. Description: RXR homodimer co-transfection assay, antagonist mode, RXRγ. The conditions noted are these: read-out: RXRγ Potency IC50; antagonist potency in the presence of the known RXR agonist LGD1069; CV-1 cells.
For a further series, the target named is T5, RXRα:PPARα heterodimer (Homo sapiens, UniProt P19793).
T5 sequence (P19793 1-462): T1 sequence (P19793 1-462)
T5 sequence (Q07869 1-468 partner): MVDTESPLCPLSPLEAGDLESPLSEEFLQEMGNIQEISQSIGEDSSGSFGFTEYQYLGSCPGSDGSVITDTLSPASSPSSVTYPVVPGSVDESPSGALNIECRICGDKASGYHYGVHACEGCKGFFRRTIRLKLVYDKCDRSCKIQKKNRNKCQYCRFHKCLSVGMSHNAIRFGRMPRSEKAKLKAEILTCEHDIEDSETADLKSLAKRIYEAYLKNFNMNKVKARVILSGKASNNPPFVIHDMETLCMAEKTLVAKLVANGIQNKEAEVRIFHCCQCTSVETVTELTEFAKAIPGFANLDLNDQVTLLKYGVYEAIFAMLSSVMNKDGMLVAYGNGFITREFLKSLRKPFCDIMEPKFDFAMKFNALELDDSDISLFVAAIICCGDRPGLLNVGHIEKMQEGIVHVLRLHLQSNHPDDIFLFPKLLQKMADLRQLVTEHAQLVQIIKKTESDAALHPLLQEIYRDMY
Description: RXR heterodimer co-transfection assay (RXRα and PPARα, PPARα response element reporter). The conditions noted are these: for Fold activation: normalized luciferase values at 10−5M divided by values with vehicle.

A further series concerns the target T6, RXRα:RXRα homodimer (Homo sapiens, UniProt P19793).
T6 sequence (P19793 227-458 limits assumed): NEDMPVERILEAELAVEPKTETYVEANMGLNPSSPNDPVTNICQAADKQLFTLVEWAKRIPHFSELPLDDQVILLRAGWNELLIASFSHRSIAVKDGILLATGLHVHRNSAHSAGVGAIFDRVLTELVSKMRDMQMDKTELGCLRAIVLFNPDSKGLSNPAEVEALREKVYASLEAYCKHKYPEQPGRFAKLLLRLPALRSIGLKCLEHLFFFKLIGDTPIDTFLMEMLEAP
Description: Gal4-receptor chimera transactivation assay, RXR homodimer. To be noted: for Fold activation: CV-1 cells, 100 nM LG100268, LGD1069, n.e. = no effect; for Fold activation / Fold Repression: 500 nM Compounds 117, 122, 130, 1 mM Compound 131; for agonist activity on RXR homodimers in the GAL4 transfection assay (in words): compound alone; for antagonist activity on RXR homodimers in the GAL4 transfection assay (in words) / Fold Repression: in combination with either LGD1069 or LG100268.

The target in a further series is T7, RXRα:RARα heterodimer (Homo sapiens, UniProt P19793).
T7 sequence (P19793 227-458 limits assumed): T6 sequence (P19793 227-458 limits assumed)
T7 sequence (P10276 183-417 partner limits assumed): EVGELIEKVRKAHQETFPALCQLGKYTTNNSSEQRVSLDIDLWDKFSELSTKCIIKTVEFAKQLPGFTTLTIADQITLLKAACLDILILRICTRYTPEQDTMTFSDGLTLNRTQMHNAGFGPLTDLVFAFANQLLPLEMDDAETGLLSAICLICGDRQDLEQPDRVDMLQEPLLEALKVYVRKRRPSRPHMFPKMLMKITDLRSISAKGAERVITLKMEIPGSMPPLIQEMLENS
Description: Gal4-receptor chimera transactivation assay, RXRα:RARα heterodimer. The conditions noted are these: for effect on RXRα:RARα heterodimer in combination with TTNPB (in words): combined with the RXR:RAR activator TTNPB, data not shown; for agonist activity on RXRα:RARα heterodimers (in words): compound alone.

Description for RXRα:RARα heterodimer: (§1) Briefly, CV-1 cells were transfected in 12 well multi-well plates using 0.1 μg of each receptor and 0.5 μg of reporter per well. Each well was also transfected with 0.5 μg of the β-Gal expression plasmid as an internal control for transfection efficiency. Total plasmid per well was 2 μg made up using the plasmid pGEM. […] Receptor ligand binding domains (LBDs) were fused in-frame downstream to the Gal4 cDNA to produce Gal4-receptor fusion proteins. To express only the receptor LBDs, the LBD was cloned directly downstream to the CMV promoter.
Cells were then washed 2X with PBS and lysed using Promega lysis buffer and assayed for luciferase activity and β-galactosidase activity. All results were normalized against β-Gal.
The above assay system was used because reporter activity is dependent upon the binding of the Gal4 DNA binding domain to copies of its binding site, the UAS (upstream activation sequence), located upstream of the luciferase cDNA. […] Since endogenous receptors lack the Gal4 DNA binding domain, no background activation of the reporter is observed, however, Gal4-receptor LBD fusion proteins can bind the Gal4 site and be activated in a receptor ligand dependent manner. This system, therefore, completely eliminates the low background activity of endogenous receptors in CV-1 cells making it possible to test compound activity on exogenously added receptors.
Description for RXRα:RXRα homodimer: as §1
Cells were then washed 2X with PBS and lysed using Promega lysis buffer and assayed for luciferase activity and β-galactosidase activity. All results were normalized against β-Gal. Each set was done in triplicates and each experiment was carried out at least 3 separate times with similar results.

Consider “4-[(3-hexyloxy-5,6,7,8-tetrahydro-5,5,8,8-tetramethyl-2-naphthyl)carbonyl]benzoic acid oxime [Compound 114]”, for which the Kd at RXRα [1] amounted to 9 nM; on RXRβ [2], 12 nM; on RXRγ [3], 38 nM. In addition, the “antagonism of RXR homodimer transactivation (in words)” value (shortened to “antagonism”) on RXR:RXR homodimer was “function as antagonists”. Moreover, the IC50 on RXRα [4] is 126 nM; on RXRβ [5] it was 197 nM; at RXRγ [6] it was 206 nM. Moreover, the Fold activation at RXRα:PPARα heterodimer turned out to be 4 fold. For the same molecule, at RXRα:PPARα heterodimer (read-out: EC50 (agonist potency), CV-1 cell transfected with both RXRα and PPARα), the concentration for a half-maximal effect (EC50) stood at 200 nM.

Take `CC1(C)CCC(C)(C)c2cc(C(=NO)c3ccc(C(=O)O)cc3)c(OCc3ccccc3)cc21` [Compound 117, cis-4-[(3-benzyloxy-5,6,7,8-tetrahydro-5,5,8,8-tetramethyl-2-naphthyl)carbonyl]benzoic acid oxime]: the melting point was 199 to 205 °C (dec.). Further, binding on RXRα [1] was put at a Kd of 3 nM. Besides, at RXRβ [2], the dissociation constant (Kd) is 17 nM. At RXRγ [3], this molecule registered a Kd of 17 nM. Further, on RXR:RXR homodimer, the “antagonism” value is recorded as “function as antagonists”. On RXRα:RXRα homodimer, the “Fold activation” value was “n.e”, the “agonist activity on RXR homodimers in the GAL4 transfection assay (in words)” value was “inactive”, the “antagonist activity on RXR homodimers in the GAL4 transfection assay (in words)” value is listed as “moderate antagonist” and the “Fold Repression” value stood at 1.5 fold. Besides, on RXRα:RARα heterodimer (CV-1 cells, 500 nM Compound 117, in combination with TTNPB), the “Fold Repression” value is 1.4 fold. Also, at RXRα:RARα heterodimer, the “effect on RXRα:RARα heterodimer in combination with TTNPB (in words)” value was “weak repressor” and the “agonist activity on RXRα:RARα heterodimers (in words)” value is “inactive”. Further, on RXRα:PPARα heterodimer, the EC50 is 900 nM and the Fold activation was determined as 9 fold.

With `CC1(C)CCC(C)(C)c2cc3c(cc21)CCC=C3Cc1ccc(C(=O)O)cc1` [Compound 131, 4-(3,4,5,6,7,8-hexahydro-5,5,8,8-tetramethyl-anthracen-1-ylmethyl)benzoic acid], on RXRα [1], the Kd came to 140 nM. At RXRβ [2], this molecule gave a Kd of 105 nM. The Kd on RXRγ [3] was 107 nM. The “antagonism” value at RXR:RXR homodimer is “function as antagonists”. For the same molecule, at RXRα:RXRα homodimer, the “Fold activation” value is listed as “n.e”, the “agonist activity on RXR homodimers in the GAL4 transfection assay (in words)” value was “inactive”, the “antagonist activity on RXR homodimers in the GAL4 transfection assay (in words)” value is recorded as “weak antagonist” and the “Fold Repression” value was found to be 1.3 fold. At RXRα:RARα heterodimer, the “effect on RXRα:RARα heterodimer in combination with TTNPB (in words)” value is “slight increase in activation” and the “agonist activity on RXRα:RARα heterodimers (in words)” value is given as “potent agonists”. On RXRα:PPARα heterodimer, this molecule returned an EC50 of 800 nM and a Fold activation of 7 fold.

`CC1(C)CCC(C)(C)c2cc3c(cc21)CCCN3Cc1ccc(C(=O)O)cc1` [Compound 135, 4-(3,4,6,7,8,9-hexahydro-6,6,9,9-tetramethyl-2H-benzo[g]quinolin-1-ylmethyl)benzoic acid] had a melting point of 173 to 175 °C. Besides, at RXRα [1], the Kd worked out at 163 nM. The dissociation constant Kd at RXRβ [2] worked out at 155 nM. Also, the Kd on RXRγ [3] turned out to be 181 nM. For the same molecule, the “antagonism” value at RXR:RXR homodimer was “function as antagonists”. This molecule gave a Fold activation on RXRα:PPARα heterodimer of 5 fold.

For orientation: Kd means the concentration at which binding is half-saturated. A low value points to higher affinity. Broadly, the IC50 is the concentration that inhibits the measured activity by half. What is called EC50 is the midpoint of the concentration-response curve. One may read the melting point as the temperature, or range, at which the solid turns liquid.
